Source: patent US20260070917A1, “CYCLIN DEPENDENT KINASE DEGRADERS AND METHODS OF USE THEREOF” (Differentiated Therapeutics Inc, priority 2023, published 2026)
Like-named read-outs stand apart in the source and are kept apart here.

Legend:
Type in all cases: cell-based
[1] = molecular target: T1, CDK2 (Homo sapiens, UniProt P24941); experiment: HiBit Assay Protocol for CDK2 (HIBIT protein quantification, degradation); settings: HEK293-CDK2-Hibit cells, compound treatment for 6 hours; for DC50: ABS DC50
T1 construct: host or cells: HEK293-CDK2-Hibit
Outline: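 DC50 comes from a fitted curve of remaining CDK2-HiBiT luminescence, referenced to DMSO-treated cells and medium-only wells. HEK293-CDK2-HiBiT cells, plated the previous night, received compounds in a 10-point, 3-fold series for 6 h before lysis with LgBiT-containing Nano-Glo HiBiT reagent.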

[2] = molecular target: T2, CCNE1 (Homo sapiens, UniProt P24864); experiment: HiBit Assay Protocol for CCNE1 (HIBIT protein quantification, degradation); settings: HEK293-CCNE1-Hibit cells, compound treatment for 6 hours
T2 construct: host or cells: HEK293-CCNE1-Hibit
Outline: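 Degradation readout: lytic Nano-Glo HiBiT luminescence after 6 h exposure of HEK293-CCNE1-HiBiT cells to 10-point, 3-fold serial dilutions. Signal was scaled between medium-only and DMSO-treated wells, and DC50 came from curve fits.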

[3] = molecular target: T3, CDK9 (Homo sapiens, UniProt P50750); experiment: HiBit Assay Protocol for CDK9 (HIBIT protein quantification, degradation); settings: HEK293-CDK9-Hibit cells, compound treatment for 6 hours; for Dmax: read-out: CDK9 HIBIT Protein Quantification Maximum
T3 construct: host or cells: HEK293-CDK9-Hibit
Outline: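 Degradation read-out: luminescence after lytic HiBiT/LgBiT detection in HEK293-CDK9-HiBiT cells exposed 6 h to 10-point, 3-fold compound dilutions. Signal scaled between 0.1% DMSO-treated cells and medium alone; DC50 fitted from the curve.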

T3 sequence (P50750 whole entry): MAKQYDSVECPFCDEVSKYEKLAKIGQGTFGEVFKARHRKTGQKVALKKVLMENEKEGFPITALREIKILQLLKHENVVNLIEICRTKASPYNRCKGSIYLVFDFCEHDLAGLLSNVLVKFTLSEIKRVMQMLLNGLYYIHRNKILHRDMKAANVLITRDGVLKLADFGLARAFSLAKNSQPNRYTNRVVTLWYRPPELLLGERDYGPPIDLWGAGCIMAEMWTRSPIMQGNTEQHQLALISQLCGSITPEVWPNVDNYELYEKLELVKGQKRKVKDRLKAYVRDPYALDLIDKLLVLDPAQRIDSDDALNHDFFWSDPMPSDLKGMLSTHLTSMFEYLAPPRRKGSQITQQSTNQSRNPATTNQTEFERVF
T2 sequence (P24864 whole entry): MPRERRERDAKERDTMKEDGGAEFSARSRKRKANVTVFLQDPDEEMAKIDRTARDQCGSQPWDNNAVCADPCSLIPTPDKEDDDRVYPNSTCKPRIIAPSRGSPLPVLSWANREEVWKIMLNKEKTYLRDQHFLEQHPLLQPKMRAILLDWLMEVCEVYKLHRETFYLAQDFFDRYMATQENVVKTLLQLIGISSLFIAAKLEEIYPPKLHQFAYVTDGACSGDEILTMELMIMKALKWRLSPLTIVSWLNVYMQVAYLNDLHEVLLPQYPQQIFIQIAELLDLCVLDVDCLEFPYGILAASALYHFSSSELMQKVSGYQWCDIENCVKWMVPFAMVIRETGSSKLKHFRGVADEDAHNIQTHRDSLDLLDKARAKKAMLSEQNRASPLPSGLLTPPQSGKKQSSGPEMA

Cn1c(=O)n(C2CCC(=O)NC2=O)c2cccc(-c3ccc(Oc4cccc(S(=O)(=O)N5CCC(Nc6ncc7c(n6)N([C@@H]6CCC[C@@H](O)C6)C(=O)C76CC6)CC5)c4)cc3)c21 (some centres unmarked) [Compound 150]
CDK2 HIBIT Protein Quantification Maximum [1]: 67%
DC50 [1]: 12.9 nM
CCNE1 HIBIT Protein Quantification Maximum [2]: 41%
Dmax ([3]; 6 h): 45%

C[C@@H]1CN(S(=O)(=O)c2cccc(CN3CCC(c4ccc5c(N6CCC(=O)NC6=O)nn(C)c5c4)CC3)c2)CC[C@@H]1Nc1ncc2c(n1)N([C@@H]1CCC[C@@H](O)C1)C(=O)C21CC1 [Compound 153, 1-{6-[1-({3-[(3R,4S)-4-{7′-[(1R,3R)-3-Hydroxycyclohexyl]-6′-oxospiro[cyclopropane-1,5′-pyrrolo[2,3-d]pyrimidin]-2′-ylamino}-3-methylpiperidin-1-ylsulfonyl]phenyl}methyl)piperidin-4-yl]-1-methylindazol-3-yl}-1,3-diazinane-2,4-dione]
CDK2 HIBIT Protein Quantification Maximum [1]: 57%
DC50 [1]: 9.42 nM
CCNE1 HIBIT Protein Quantification Maximum [2]: 28%
Dmax ([3]; 6 h): 17%

C[C@@H]1CN(S(=O)(=O)c2cccc(CN3CCC(c4ccc5c(N6CCC(=O)NC6=O)nn(C)c5c4)CC3)c2)CC[C@H]1Nc1ncc2c(n1)N([C@@H]1CCC[C@@H](O)C1)C(=O)C21CC1 [Compound 154]
CDK2 HIBIT Protein Quantification Maximum [1]: 64%
DC50 [1]: 7.87 nM
CCNE1 HIBIT Protein Quantification Maximum [2]: 31%
Dmax ([3]; 6 h): 15%

Cn1nc(N2CCC(=O)NC2=O)c2ccc(C3CCN(Cc4cccc(S(=O)(=O)N5CC[C@@H](Nc6ncc7c(n6)N([C@@H]6CCC[C@@H](O)C6)C(=O)C76CC6)[C@@H](F)C5)c4)CC3)cc21 [Compound 155, 1-{6-[1-({3-[(3S,4R)-3-Fluoro-4-{7′-[(1R,3R)-3-hydroxycyclohexyl]-6′-oxospiro[cyclopropane-1,5′-pyrrolo[2,3-d]pyrimidin]-2′-ylamino}piperidin-1-ylsulfonyl]phenyl}methyl)piperidin-4-yl]-1-methylindazol-3-yl}-1,3-diazinane-2,4-dione]
CDK2 HIBIT Protein Quantification Maximum [1]: 19%
CCNE1 HIBIT Protein Quantification Maximum [2]: 14%
Dmax ([3]; 6 h): 8%

Cn1nc(N2CCC(=O)NC2=O)c2ccc(C3CCN(Cc4cccc(S(=O)(=O)N5CC[C@H](Nc6ncc7c(n6)N([C@@H]6CCC[C@@H](O)C6)C(=O)C76CC6)[C@H](F)C5)c4)CC3)cc21 [Compound 156]
CDK2 HIBIT Protein Quantification Maximum [1]: 81%
DC50 [1]: 1.66 nM
CCNE1 HIBIT Protein Quantification Maximum [2]: 44%
Dmax ([3]; 6 h): 9%

Cn1nc(N2CCC(=O)NC2=O)c2ccc(C3CCN(Cc4cccc(S(=O)(=O)N5CC[C@H](Nc6ncc7c(n6)N([C@@H]6CCC[C@@H](O)C6)C(=O)C76CC6)[C@@H](F)C5)c4)CC3)cc21 [Compound 157]
CDK2 HIBIT Protein Quantification Maximum [1]: 18%
CCNE1 HIBIT Protein Quantification Maximum [2]: 14%
Dmax ([3]; 6 h): 12%

Cn1nc(N2CCC(=O)NC2=O)c2ccc(C3CCN(Cc4cc(S(=O)(=O)N5CCC(Nc6ncc7c(n6)N([C@@H]6CCC[C@@H](O)C6)C(=O)C76CC6)CC5)ccn4)CC3)cc21 [Compound 160, 1-[6-(1-{[4-(4-{7′-[(1R,3R)-3-Hydroxycyclohexyl]-6′-oxospiro[cyclopropane-1,5′-pyrrolo[2,3-d]pyrimidin]-2′-ylamino}piperidin-1-ylsulfonyl)pyridin-2-yl]methyl}piperidin-4-yl)-1-methylindazol-3-yl]-1,3-diazinane-2,4-dione]
CDK2 HIBIT Protein Quantification Maximum [1]: 75%
DC50 [1]: 25.2 nM
CCNE1 HIBIT Protein Quantification Maximum [2]: 34%
Dmax ([3]; 6 h): 38%

Cn1nc(N2CCC(=O)NC2=O)c2ccc(C3CCN(Cc4cccc(S(=O)(=O)N5CCC(Nc6ncc7c(n6)N(c6cc(F)ccc6Cl)C(=O)C76CC6)CC5)c4)CC3)cc21 [Compound 162, 1-(6-{1-[(3-{4-[7′-(2-Chloro-5-fluorophenyl)-6′-oxospiro[cyclopropane-1,5′-pyrrolo[2,3-d]pyrimidin]-2′-ylamino]piperidin-1-ylsulfonyl}phenyl)methyl]piperidin-4-yl}-1-methylindazol-3-yl)-1,3-diazinane-2,4-dione]
CDK2 HIBIT Protein Quantification Maximum [1]: 75%
DC50 [1]: 8.03 nM
CCNE1 HIBIT Protein Quantification Maximum [2]: 42%
Dmax [3]: 4%

Cc1ccc(CN2CCC(c3ccc4c(N5CCC(=O)NC5=O)nn(C)c4c3)CC2)cc1S(=O)(=O)N1CCC(Nc2ncc3c(n2)N([C@@H]2CCC[C@@H](O)C2)C(=O)C32CC2)CC1 [Compound 163, 1-[6-(1-{[3-(4-{7′-[(1R,3R)-3-Hydroxycyclohexyl]-6′-oxospiro [cyclopropane-1,5′-pyrrolo[2,3-d]pyrimidin]-2′-ylamino}piperidin-1-ylsulfonyl)-4-methylphenyl]methyl}piperidin-4-yl)-1-methylindazol-3-yl]-1,3-diazinane-2,4-dione]
CDK2 HIBIT Protein Quantification Maximum [1]: 26%
CCNE1 HIBIT Protein Quantification Maximum [2]: 38%
Dmax ([3]; 6 h): 51%
DC50 ([3]; ABS DC50): 25.3 nM

Cn1nc(N2CCC(=O)NC2=O)c2ccc(C3CCN(Cc4ccnc(S(=O)(=O)N5CCC(Nc6ncc7c(n6)N([C@@H]6CCC[C@@H](O)C6)C(=O)C76CC6)CC5)c4)CC3)cc21 [Compound 165, 1-[6-(1-{[2-(4-{7′-[(1R,3R)-3-Hydroxycyclohexyl]-6′-oxospiro[cyclopropane-1,5′-pyrrolo[2,3-d]pyrimidin]-2′-ylamino}piperidin-1-ylsulfonyl)pyridin-4-yl]methyl}piperidin-4-yl)-1-methylindazol-3-yl]-1,3-diazinane-2,4-dione]
CDK2 HIBIT Protein Quantification Maximum [1]: 78%
DC50 [1]: 10.1 nM
CCNE1 HIBIT Protein Quantification Maximum [2]: 44%
Dmax ([3]; 6 h): 13%

Cn1nc(N2CCC(=O)NC2=O)c2ccc(C3CCN(Cc4cccc(S(=O)(=O)N5CCC(Nc6ncc7c(n6)N([C@@H]6CCC[C@@H](O)C6)C(=O)C76CC6)CC5)n4)CC3)cc21 [Compound 166, 1-[6-(1-{[6-(4-{7′-[(1R,3R)-3-Hydroxycyclohexyl]-6′-oxospiro[cyclopropane-1,5′-pyrrolo[2,3-d]pyrimidin]-2′-ylamino}piperidin-1-ylsulfonyl)pyridin-2-yl]methyl}piperidin-4-yl)-1-methylindazol-3-yl]-1,3-diazinane-2,4-dione]
CDK2 HIBIT Protein Quantification Maximum [1]: 64%
DC50 [1]: 21.3 nM
CCNE1 HIBIT Protein Quantification Maximum [2]: 44%
Dmax ([3]; 6 h): 18%

Cc1cc(CN2CCC(c3ccc4c(N5CCC(=O)NC5=O)nn(C)c4c3)CC2)cc(S(=O)(=O)N2CCC(Nc3ncc4c(n3)N([C@@H]3CCC[C@@H](O)C3)C(=O)C43CC3)CC2)c1 [Compound 167, 1-[6-(1-{[3-(4-{7′-[(1R,3R)-3-Hydroxycyclohexyl]-6′-oxospiro[cyclopropane-1,5′-pyrrolo[2,3-d]pyrimidin]-2′-ylamino}piperidin-1-ylsulfonyl)-5-methylphenyl]methyl}piperidin-4-yl)-1-methylindazol-3-yl]-1,3-diazinane-2,4-dione]
CDK2 HIBIT Protein Quantification Maximum [1]: 70%
DC50 [1]: 3.77 nM
CCNE1 HIBIT Protein Quantification Maximum [2]: 32%
Dmax ([3]; 6 h): 15%

Cc1ccc(S(=O)(=O)N2CCC(Nc3ncc4c(n3)N([C@@H]3CCC[C@@H](O)C3)C(=O)C43CC3)CC2)cc1CN1CCC(c2ccc3c(N4CCC(=O)NC4=O)nn(C)c3c2)CC1 [Compound 168]
CDK2 HIBIT Protein Quantification Maximum [1]: 71%
DC50 [1]: 2.91 nM
CCNE1 HIBIT Protein Quantification Maximum [2]: 40%
Dmax ([3]; 6 h): 26%

Cn1nc(N2CCC(=O)NC2=O)c2ccc(C3CCN(Cc4cc(S(=O)(=O)N5CCC(Nc6ncc7c(n6)N([C@@H]6CCC[C@@H](O)C6)C(=O)C76CC6)CC5)ccc4F)CC3)cc21 [Compound 169, 1-[6-(1-{[2-Fluoro-5-(4-{7′-[(1R,3R)-3-hydroxycyclohexyl]-6′-oxospiro[cyclopropane-1,5′-pyrrolo[2,3-d]pyrimidin]-2′-ylamino}piperidin-1-ylsulfonyl)phenyl]methyl}piperidin-4-yl)-1-methylindazol-3-yl]-1,3-diazinane-2,4-dione]
CDK2 HIBIT Protein Quantification Maximum [1]: 84%
DC50 [1]: 5.85 nM
CCNE1 HIBIT Protein Quantification Maximum [2]: 47%
Dmax ([3]; 6 h): 10%

Cn1nc(N2CCC(=O)NC2=O)c2ccc(C3CCN(Cc4cc(F)cc(S(=O)(=O)N5CCC(Nc6ncc7c(n6)N([C@@H]6CCC[C@@H](O)C6)C(=O)C76CC6)CC5)c4)CC3)cc21 [Compound 170, 1-[6-(1-{[3-Fluoro-5-(4-{7′-[(1R,3R)-3-hydroxycyclohexyl]-6′-oxospiro[cyclopropane-1,5′-pyrrolo[2,3-d]pyrimidin]-2′-ylamino}piperidin-1-ylsulfonyl)phenyl]methyl}piperidin-4-yl)-1-methylindazol-3-yl]-1,3-diazinane-2,4-dione]
CDK2 HIBIT Protein Quantification Maximum [1]: 75%
DC50 [1]: 3.63 nM
CCNE1 HIBIT Protein Quantification Maximum [2]: 46%
Dmax [3]: 5%

Cn1nc(N2CCC(=O)NC2=O)c2ccc(C3CCN(Cc4ccc(F)c(S(=O)(=O)N5CCC(Nc6ncc7c(n6)N([C@@H]6CCC[C@@H](O)C6)C(=O)C76CC6)CC5)c4)CC3)cc21 [Compound 171]
CDK2 HIBIT Protein Quantification Maximum [1]: 55%
DC50 [1]: 4.43 nM
CCNE1 HIBIT Protein Quantification Maximum [2]: 29%
Dmax ([3]; 6 h): 15%
